Source: patent US20150368248A1, “2-SUBSTITUTED-6-BIARYLMETHYLAMINO-9-CYCLOPENTYL-9H-PURINE DERIVATIVES, USE THEREOF AS MEDICAMENTS, AND PHARMACEUTICAL COMPOSITIONS” (UNIVERZITA PALACKEHO V OLOMOUCI, priority 2013, published 2015)
Like-named read-outs stand apart in the source and are kept apart here.

Key:
[1] = tested on: human umbilical vein endothelial cells (HUVECs); assay: Migration scratch assay; assay type: cell-based; parameters: key to Wound area: ++: open; +: partly open; 0: closed; conditions: for Wound area: 24 h; for inhibition of migration (in words): 24 h treatment
Procedure: Migration assay was performed as described previously (Krystof et al., 2011, Eur J Med Chem.; 46(9):4289-94). Briefly, confluent HUVECs were scratched and immediately treated for 24 h with various doses of compounds. After incubation each well was photographed using a DP Controller system (Olympus) connected to a Olympus BX50 microscope. Migration was expressed as the proportion of pixels of the wound area in the image that were not covered by cells using “in house” software.

[2] = tested on: human umbilical vein endothelial cells (HUVEC); assay: HUVEC proliferation, Calcein AM; assay type: cell-based; conditions: Homo sapiens, HUVEC, read-out: Inhibitory concentration for HUVEC cells - IC50
Procedure, shortened: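 Confluent HUVECs seeded in 96-well plates and exposed to compound for 24 or 72 h. Proliferation read by Calcein AM fluorescence.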

PLC/PRF/5 = assay: MTT cytotoxicity assay (Example 30); assay type: cell-based; conditions: Homo sapiens, PLC-PRF-5, 72 h; MTT, three days after drug addition; read-out: Inhibitory concentration IC50, PLC/PRF/5
HCC-1.2 (3p) = assay: MTT cytotoxicity assay (Example 30); assay type: cell-based; conditions: Homo sapiens, HCC-1.2, 72 h; MTT, three days after drug addition; read-out: Inhibitory concentration IC50, 3p
HCC-1.1 (3sp) = assay: MTT cytotoxicity assay (Example 30); assay type: cell-based; conditions: Homo sapiens, 72 h; MTT, three days after drug addition; read-out: Inhibitory concentration IC50, 3sp
HUH-7 = assay: MTT cytotoxicity assay (Example 30); assay type: cell-based; conditions: Homo sapiens, Huh-7, 72 h; MTT, three days after drug addition; read-out: Inhibitory concentration IC50, HUH-7
CDK1/cyclin B = target: T1, CDK1/cyclin B (Homo sapiens, UniProt P06493); assay: Kinase inhibition assay, recombinant kinase, [γ-33P]ATP; assay type: biochemical; conditions: read-out: Kinase inhibition IC50, CDK1
T1 construct: made in house; host or cells: Sf9 insect cells (baculovirus)
Procedure: CDK2/Cyclin E kinase was produced in Sf9 insect cells via baculoviral infection and purified on a NiNTA column (Qiagen). CDK5/p35, CDK7Cyclin H/MAT1 and CDK9/Cyclin T1 was purchased from ProQinase GmbH. […] The reactions were stopped by adding 5 μL of 3% aq H3PO4. Aliquots were spotted onto P-81 phosphocellulose (Whatman), washed 3× with 0.5% aq H3PO4 and finally air-dried.
(§1) CDK1/cyclin B and CDK2/cyclin E kinases were produced in Sf9 insect cells via baculoviral infection, while CDK5/p35, CDK7/cyclin H/MAT1, and CDK9/cyclin T1 were purchased from ProQinase (Freiburg, Germany) and assayed as described previously (35). The kinase reactions were assayed with 1 mg/ml histone H1 (for CDK2 and CDK5) or (YSPTSPS)2KK peptide (for CDK7 and CDK9) in the presence of 15/0.15/1.5/1.5 […] ATP (for CDK2/CDK5/CDK7CDK9), […] [γ-^33P]ATP and of the test compound in a final volume of […]. The reaction buffer contained 60 mM HEPES-NaOH, pH 7.5, 3 mM MgCl2, 3 mM MnCl2, 3 mM Na-orthovanadate, 1.2 mM DTT, 2.5 mg/50 ml PEG20.000. The reactions were stopped by adding […] of 3% H3PO4. Aliquots were spotted onto P-81 phosphocellulose (Whatman, GE Healthcare Biosciences, Pittsburgh, USA), washed 3 times with 0.5% H3PO4 and finally air-dried. Kinase inhibition was quantified using a FLA-7000 digital image analyzer (Fujifilm, Tokyo, Japan).

CDK5/p35 = target: T2, CDK5/p35 (Homo sapiens, UniProt Q00535); assay: as above; assay type: biochemical; conditions: read-out: Residual kinase activity, CDK5; for remaining activity at 0.1 µM: 100 nM; for remaining activity at 1 µM: 1000 nM
T2 construct: purchased ProQinase GmbH (Freiburg, Germany)
Procedure: (§2) CDK2/Cyclin E kinase was produced in Sf9 insect cells via baculoviral infection and purified on a NiNTA column (Qiagen). CDK5/p35, CDK7Cyclin H/MAT1 and CDK9/Cyclin T1 was purchased from ProQinase GmbH. The kinase reactions were assayed with 1 mg/mL histone H1 (for CDK2 and CDK5) or (YSPTSPS)2KK peptide (for CDK7 and CDK9) in the presence of 15/0.15/1.5/1.5 μM ATP (for CDK2/CDK5/CDK7CDK9), 0.05 μCi [γ-^33P]ATP and of the test compound in a final volume of 10 μL, all in a reaction buffer (60 mM HEPES-NaOH, pH 7.5, 3 mM MgCl2, 3 mM MnCl2, 3 μM Na-orthovanadate, 1.2 mM DTT, 2.5 μg/50 μl PEG20,000). The reactions were stopped by adding 5 μL of 3% aq H3PO4. Aliquots were spotted onto P-81 phosphocellulose (Whatman), washed 3× with 0.5% aq H3PO4 and finally air-dried.
as §1

CDK9/Cyclin T1 = target: T3, CDK9/Cyclin T1 (Homo sapiens, UniProt P50750); assay: as above; assay type: biochemical; conditions: read-out: Residual kinase activity, CDK9; for remaining activity at 0.1 µM: 100 nM; for remaining activity at 1 µM: 1000 nM
T3 construct: purchased ProQinase GmbH (Freiburg, Germany)
Procedure: as §2, §1

T3 sequence (P50750 whole entry): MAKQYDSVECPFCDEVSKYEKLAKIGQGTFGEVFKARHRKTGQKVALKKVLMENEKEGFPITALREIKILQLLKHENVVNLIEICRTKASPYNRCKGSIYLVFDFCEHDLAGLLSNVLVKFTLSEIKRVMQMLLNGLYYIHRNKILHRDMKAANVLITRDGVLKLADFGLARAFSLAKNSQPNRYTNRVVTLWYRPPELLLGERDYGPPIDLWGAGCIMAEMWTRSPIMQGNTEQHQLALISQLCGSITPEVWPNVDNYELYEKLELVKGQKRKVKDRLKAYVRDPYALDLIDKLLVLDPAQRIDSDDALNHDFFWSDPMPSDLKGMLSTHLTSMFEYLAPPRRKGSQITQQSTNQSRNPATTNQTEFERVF
T3 sequence (O60563 whole entry partner): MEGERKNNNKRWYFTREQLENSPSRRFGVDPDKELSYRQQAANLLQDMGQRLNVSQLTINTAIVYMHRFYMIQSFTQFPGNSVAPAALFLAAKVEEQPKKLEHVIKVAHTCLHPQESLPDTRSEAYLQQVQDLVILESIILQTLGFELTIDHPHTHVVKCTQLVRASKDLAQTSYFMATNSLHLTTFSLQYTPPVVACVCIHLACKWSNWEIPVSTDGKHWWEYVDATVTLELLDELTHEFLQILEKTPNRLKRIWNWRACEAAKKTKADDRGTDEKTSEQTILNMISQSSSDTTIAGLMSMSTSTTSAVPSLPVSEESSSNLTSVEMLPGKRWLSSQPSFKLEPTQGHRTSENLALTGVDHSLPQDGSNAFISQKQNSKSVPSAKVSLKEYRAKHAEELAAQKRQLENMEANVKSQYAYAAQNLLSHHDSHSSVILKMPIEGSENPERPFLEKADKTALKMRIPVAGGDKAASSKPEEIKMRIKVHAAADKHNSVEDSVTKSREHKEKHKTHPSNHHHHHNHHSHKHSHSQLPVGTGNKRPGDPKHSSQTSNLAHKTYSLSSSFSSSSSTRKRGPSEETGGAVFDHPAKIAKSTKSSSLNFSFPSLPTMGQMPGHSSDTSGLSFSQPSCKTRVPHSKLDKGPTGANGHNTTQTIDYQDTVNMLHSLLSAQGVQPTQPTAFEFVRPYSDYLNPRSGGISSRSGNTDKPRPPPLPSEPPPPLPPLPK
T2 sequence (Q00535 whole entry): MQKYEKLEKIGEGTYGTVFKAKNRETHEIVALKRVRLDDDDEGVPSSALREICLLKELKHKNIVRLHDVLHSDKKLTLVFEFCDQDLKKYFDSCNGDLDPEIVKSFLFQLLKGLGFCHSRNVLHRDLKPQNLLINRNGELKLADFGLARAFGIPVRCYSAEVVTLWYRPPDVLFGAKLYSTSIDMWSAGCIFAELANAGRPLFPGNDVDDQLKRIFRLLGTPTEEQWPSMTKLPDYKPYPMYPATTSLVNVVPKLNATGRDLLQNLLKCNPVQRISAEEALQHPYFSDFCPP
T2 sequence (Q15078 whole entry partner): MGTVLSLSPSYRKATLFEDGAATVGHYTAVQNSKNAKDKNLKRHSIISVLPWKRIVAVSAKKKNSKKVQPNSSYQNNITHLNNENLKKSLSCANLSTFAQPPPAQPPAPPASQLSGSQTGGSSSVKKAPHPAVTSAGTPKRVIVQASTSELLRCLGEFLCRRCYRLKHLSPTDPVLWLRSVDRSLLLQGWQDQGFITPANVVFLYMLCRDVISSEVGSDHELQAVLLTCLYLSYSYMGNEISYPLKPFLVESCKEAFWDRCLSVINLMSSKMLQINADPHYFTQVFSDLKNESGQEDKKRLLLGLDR
T1 sequence (P06493 whole entry, species assumed): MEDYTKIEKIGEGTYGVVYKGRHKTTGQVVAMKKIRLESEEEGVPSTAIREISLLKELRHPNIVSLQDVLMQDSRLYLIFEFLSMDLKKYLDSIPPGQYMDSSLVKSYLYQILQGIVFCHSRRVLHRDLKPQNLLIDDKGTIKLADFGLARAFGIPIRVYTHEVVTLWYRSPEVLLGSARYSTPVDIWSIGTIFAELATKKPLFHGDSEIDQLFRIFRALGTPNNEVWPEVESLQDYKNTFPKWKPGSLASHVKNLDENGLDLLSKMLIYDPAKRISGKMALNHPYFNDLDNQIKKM
T1 sequence (P14635 whole entry partner, species assumed): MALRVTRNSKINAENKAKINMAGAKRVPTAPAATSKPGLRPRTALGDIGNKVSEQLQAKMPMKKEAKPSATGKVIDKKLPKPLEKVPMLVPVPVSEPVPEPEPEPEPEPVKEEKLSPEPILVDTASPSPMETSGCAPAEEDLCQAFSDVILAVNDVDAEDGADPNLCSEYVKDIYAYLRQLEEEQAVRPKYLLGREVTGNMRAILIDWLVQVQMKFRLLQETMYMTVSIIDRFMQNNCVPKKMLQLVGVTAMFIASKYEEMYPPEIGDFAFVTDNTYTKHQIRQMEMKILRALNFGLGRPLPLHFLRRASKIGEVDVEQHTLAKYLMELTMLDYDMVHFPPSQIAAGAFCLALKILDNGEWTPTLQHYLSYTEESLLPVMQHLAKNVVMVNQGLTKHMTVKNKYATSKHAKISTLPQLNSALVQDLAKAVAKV

| Compound | melting point [°C] | Wound area ([1]; 100 nM) | Wound area ([1]; 1000 nM) | IC50 ([2]; 24 h) [nM] | IC50 ([2]; 72 h) [nM] | IC50 (PLC/PRF/5) [nM] | IC50 (HCC-1.2 (3p)) [nM] | IC50 (HCC-1.1 (3sp)) [nM] | IC50 (HUH-7) [nM] | IC50 (CDK1/cyclin B) [nM] | remaining activity at 0.1 µM (CDK5/p35) [%] | remaining activity at 1 µM (CDK5/p35) [%] | remaining activity at 0.1 µM (CDK9/Cyclin T1) [%] | remaining activity at 1 µM (CDK9/Cyclin T1) [%] | inhibition of migration (in words) ([1]; 100 nM) |
| --- | --- | --- | --- | --- | --- | --- | --- | --- | --- | --- | --- | --- | --- | --- | --- |
| COc1ccccc1-c1ccc(CNc2nc(NC3CCC(N)CC3)nc3c2ncn3C2CCCC2)cn1 (centres unmarked) [BP18, N^2-(4-amino-cyclohexyl)-9-cyclopentyl-N^6-[6-(2-methoxy-phenyl)-pyridin-3-ylmethyl]-9H-purine-2,6-diamine] | 184 to 186 | + | ++ | > 50000 | 520 | 22 | 791 | 791 | 618 | 118 | 49.2 | 23.6 | 32.6 | 1.03 | – |
| NC1CCC(Nc2nc(NCc3ccc(-c4cccc(F)c4)nc3)c3ncn(C4CCCC4)c3n2)CC1 (centres unmarked) [BP19, N^2-(4-amino-cyclohexyl)-9-cyclopentyl-N^6-[6-(3-fluoro-phenyl)-pyridin-3-ylmethyl]-9H-purine-2,6-diamine] | 121 to 122 | + | ++ | 21800 | 370 | 9 | 191 | 410 | 281 | 77 | 37.7 | 25.6 | 26.6 | 0.83 | – |
| NC1CCC(Nc2nc(NCc3ccc(-c4ccccc4O)nc3)c3ncn(C4CCCC4)c3n2)CC1 (centres unmarked) [BP20, N^2-(4-amino-cyclohexyl)-9-cyclopentyl-N^6-[6-(2-hydroxy-phenyl)-pyridin-3-ylmethyl]-9H-purine-2,6-diamine] | 202 to 203 | ++ | ++ | 29200 | 570 | 7 | 132 | 197 | 182 | 47 | 47.6 | 19.4 | 21.1 | 0.59 | Significant inhibition of migration |
| NC1CCC(Nc2nc(NCc3ccc(-c4cccs4)nc3)c3ncn(C4CCCC4)c3n2)CC1 (centres unmarked) [BP30, N^2-(4-amino-cyclohexyl)-9-cyclopentyl-N^6-(6-thiophen-2-yl-pyridin-3-ylmethyl)-9H-purine-2,6-diamine] | 151 to 153 | ++ | ++ | 20400 | 80 | 15 | 205 | 476 | 184 | 49 | 26 | 4.31 | 19.6 | 1.78 | Significant inhibition of migration |
| NC1CCC(Nc2nc(NCc3ccc(-c4ccsc4)nc3)c3ncn(C4CCCC4)c3n2)CC1 (centres unmarked) [BP35, N^2-(4-amino-cyclohexyl)-9-cyclopentyl-N^6-(6-thiophen-3-yl-pyridin-3-ylmethyl)-9H-purine-2,6-diamine] | 139 to 140 | 0 | ++ | > 50000 | 180 | 37 | 218 | 328 | 257 | 169 | 65 | 8.7 | 32.8 | 2.39 | – |
| NC1CCC(Nc2nc(NCc3ccc(-c4ccoc4)nc3)c3ncn(C4CCCC4)c3n2)CC1 (centres unmarked) [BP36, N^2-(4-amino-cyclohexyl)-9-cyclopentyl-N^6-(6-furan-3-yl-pyridin-3-ylmethyl)-9H-purine-2,6-diamine] | 165 to 167 | + | ++ | 20800 | 190 | 18 | 258 | 424 | 332 | 66 | 31.9 | 2.95 | 15.4 | 1.68 | – |
